Measurements reported in patent US20260224588A1, “BENZODIAZEPINONE-DERIVED INHIBITORS OF EGFR AND HER2” (The Research Foundation for the State University of New York, priority 2023, published 2026).

Assays:
Assay in all cases: KINOMEscan
Type in all cases: binding
Details in all cases: 1 μM of compound 4; read-out: POC
FGFR1 = biological target: T1, FGFR1 (Homo sapiens, UniProt P11362)
T1 construct: purchased Eurofins DiscoverX Corporation

MAPKAPK2 = MAPKAPK2 (Homo sapiens, UniProt P49137)
CHEK2 = CHEK2 (Homo sapiens, UniProt O96017)
ABL1-nonphosphorylated = biological target: T2, ABL1-nonphosphorylated (Homo sapiens, UniProt P00519)
T2 construct: purchased Eurofins DiscoverX Corporation

ACVR1 = biological target: T3, ACVR1 (Homo sapiens, UniProt Q04771)
T3 construct: purchased Eurofins DiscoverX Corporation

PAK1 = biological target: T4, PAK1 (Homo sapiens, UniProt Q13153)
T4 construct: purchased Eurofins DiscoverX Corporation (KINOMEscan)

MAP3K3 = MAP3K3 (Homo sapiens, UniProt Q99759)
EPHA8 = biological target: T5, EPHA8 (Homo sapiens, UniProt P29322)
T5 construct: purchased Eurofins DiscoverX (KINOMEscan service)

FGR = biological target: T6, FGR (Homo sapiens, UniProt P09769)
T6 construct: purchased Eurofins DiscoverX Corporation

TIE1 = biological target: T7, TIE1 (Homo sapiens, UniProt P35590)
T7 construct: purchased Eurofins DiscoverX Corporation

CDKL3 = CDKL3 (Homo sapiens, UniProt Q8IVW4)
Sequence of CDKL3 (Q8IVW4 whole entry): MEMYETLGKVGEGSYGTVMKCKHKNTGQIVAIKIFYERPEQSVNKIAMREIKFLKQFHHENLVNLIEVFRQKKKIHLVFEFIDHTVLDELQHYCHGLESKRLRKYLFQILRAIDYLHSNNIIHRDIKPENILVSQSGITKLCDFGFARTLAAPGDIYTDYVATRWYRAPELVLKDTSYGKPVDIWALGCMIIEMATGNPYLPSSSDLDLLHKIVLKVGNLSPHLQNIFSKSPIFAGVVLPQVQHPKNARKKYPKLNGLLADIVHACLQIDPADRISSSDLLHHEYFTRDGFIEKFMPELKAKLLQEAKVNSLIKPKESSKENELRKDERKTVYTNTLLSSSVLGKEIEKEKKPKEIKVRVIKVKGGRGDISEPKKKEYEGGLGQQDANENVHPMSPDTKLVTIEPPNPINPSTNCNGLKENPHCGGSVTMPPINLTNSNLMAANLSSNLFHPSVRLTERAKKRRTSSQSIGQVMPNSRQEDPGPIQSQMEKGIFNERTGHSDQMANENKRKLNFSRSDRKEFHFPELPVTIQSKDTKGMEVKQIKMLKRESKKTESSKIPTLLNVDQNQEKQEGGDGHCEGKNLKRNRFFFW

CHEK1 = CHEK1 (Homo sapiens, UniProt O14757)
Sequence of CHEK1 (O14757 whole entry): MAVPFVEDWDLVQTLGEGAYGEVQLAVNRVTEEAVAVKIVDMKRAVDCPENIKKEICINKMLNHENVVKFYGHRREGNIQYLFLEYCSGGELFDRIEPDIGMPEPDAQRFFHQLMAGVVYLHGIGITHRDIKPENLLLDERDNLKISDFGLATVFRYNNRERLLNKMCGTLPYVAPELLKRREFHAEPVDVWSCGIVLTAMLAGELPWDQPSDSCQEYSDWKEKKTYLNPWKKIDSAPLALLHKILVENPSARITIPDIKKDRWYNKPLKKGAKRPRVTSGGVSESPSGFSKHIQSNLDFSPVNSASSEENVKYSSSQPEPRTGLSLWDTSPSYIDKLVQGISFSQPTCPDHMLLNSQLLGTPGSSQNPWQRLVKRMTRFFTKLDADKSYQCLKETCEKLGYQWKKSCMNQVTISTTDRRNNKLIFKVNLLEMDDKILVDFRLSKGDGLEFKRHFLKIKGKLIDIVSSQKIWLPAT

WEE2 = biological target: T8, WEE2 (Homo sapiens, UniProt P0C1S8)
T8 construct: purchased Eurofins DiscoverX

MKNK1 = MKNK1 (Homo sapiens, UniProt Q9BUB5)
STK16 = biological target: T9, STK16 (Homo sapiens, UniProt O75716)
T9 construct: purchased Eurofins DiscoverX (KINOMEscan service)

ERBB3 = biological target: T10, ERBB3 (Homo sapiens, UniProt P21860)
T10 construct: purchased Eurofins DiscoverX Corporation

YSK4 = biological target: T11, YSK4 (Homo sapiens, UniProt Q56UN5)
T11 construct: purchased Eurofins DiscoverX
T11 sequence (Q56UN5 whole entry): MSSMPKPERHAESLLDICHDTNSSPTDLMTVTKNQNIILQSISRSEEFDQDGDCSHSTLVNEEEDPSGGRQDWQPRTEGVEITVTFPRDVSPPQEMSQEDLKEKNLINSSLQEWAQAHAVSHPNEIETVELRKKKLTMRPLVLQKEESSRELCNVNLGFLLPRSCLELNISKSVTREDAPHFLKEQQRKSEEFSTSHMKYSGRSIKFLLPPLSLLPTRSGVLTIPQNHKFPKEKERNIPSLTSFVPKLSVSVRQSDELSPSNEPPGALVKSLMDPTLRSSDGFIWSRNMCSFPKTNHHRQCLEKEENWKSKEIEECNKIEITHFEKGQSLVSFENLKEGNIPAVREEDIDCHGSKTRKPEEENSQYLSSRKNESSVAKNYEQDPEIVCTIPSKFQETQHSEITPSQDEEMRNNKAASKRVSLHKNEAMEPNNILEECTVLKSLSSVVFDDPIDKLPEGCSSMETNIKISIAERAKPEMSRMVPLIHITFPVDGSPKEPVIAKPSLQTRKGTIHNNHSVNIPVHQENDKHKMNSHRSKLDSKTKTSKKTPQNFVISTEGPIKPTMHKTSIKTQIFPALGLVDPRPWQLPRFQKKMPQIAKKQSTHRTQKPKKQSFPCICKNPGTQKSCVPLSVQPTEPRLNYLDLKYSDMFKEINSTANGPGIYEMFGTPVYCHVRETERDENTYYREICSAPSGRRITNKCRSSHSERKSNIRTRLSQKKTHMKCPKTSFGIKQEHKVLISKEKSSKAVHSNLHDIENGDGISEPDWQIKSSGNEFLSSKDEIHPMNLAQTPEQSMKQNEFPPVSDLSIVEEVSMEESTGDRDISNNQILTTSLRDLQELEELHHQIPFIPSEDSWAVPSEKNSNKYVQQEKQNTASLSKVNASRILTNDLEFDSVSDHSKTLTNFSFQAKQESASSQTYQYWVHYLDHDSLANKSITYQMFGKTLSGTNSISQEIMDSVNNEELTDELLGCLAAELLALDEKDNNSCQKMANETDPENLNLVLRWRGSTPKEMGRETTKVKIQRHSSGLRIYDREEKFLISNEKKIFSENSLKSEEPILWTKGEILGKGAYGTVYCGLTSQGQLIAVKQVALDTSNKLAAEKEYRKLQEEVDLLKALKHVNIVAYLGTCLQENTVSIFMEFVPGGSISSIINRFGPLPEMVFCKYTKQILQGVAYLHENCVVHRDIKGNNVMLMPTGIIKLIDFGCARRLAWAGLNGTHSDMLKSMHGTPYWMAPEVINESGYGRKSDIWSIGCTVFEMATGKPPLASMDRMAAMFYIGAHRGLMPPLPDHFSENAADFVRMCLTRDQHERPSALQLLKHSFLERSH

ABL1-phosphorylated = biological target: T12, ABL1-phosphorylated (Homo sapiens, UniProt P00519)
T12 construct: purchased Eurofins DiscoverX Corporation

AXL = AXL (Homo sapiens, UniProt P30530)
PIK3CA(E545A) = PIK3CA(E545A) (Homo sapiens, UniProt P42336, E545A)
DLK = DLK (Homo sapiens, UniProt Q12852)
PAK6 = biological target: T13, PAK6 (Homo sapiens, UniProt Q9NQU5)
T13 construct: purchased Eurofins DiscoverX Corporation (KINOMEscan)
T13 sequence (Q9NQU5 whole entry): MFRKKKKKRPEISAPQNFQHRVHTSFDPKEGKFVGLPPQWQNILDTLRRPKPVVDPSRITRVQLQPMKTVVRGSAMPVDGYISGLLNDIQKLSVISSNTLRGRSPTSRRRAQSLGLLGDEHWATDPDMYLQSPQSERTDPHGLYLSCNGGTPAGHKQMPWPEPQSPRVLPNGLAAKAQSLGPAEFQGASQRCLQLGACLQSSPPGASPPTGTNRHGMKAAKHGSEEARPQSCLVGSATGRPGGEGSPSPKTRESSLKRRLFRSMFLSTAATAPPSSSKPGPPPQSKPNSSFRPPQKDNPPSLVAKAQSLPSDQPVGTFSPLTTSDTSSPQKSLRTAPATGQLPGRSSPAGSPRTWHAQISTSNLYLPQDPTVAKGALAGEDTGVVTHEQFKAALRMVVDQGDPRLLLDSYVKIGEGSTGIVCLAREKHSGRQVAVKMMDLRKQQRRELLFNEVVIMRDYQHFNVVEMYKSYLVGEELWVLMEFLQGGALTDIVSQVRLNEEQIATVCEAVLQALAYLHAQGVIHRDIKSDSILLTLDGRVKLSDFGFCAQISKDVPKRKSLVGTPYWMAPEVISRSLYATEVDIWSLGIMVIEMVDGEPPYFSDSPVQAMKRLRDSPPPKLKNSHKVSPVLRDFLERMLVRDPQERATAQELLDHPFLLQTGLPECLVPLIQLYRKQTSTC

ULK2 = biological target: T14, ULK2 (Homo sapiens, UniProt Q8IYT8)
T14 construct: purchased Eurofins DiscoverX

[1] = biological target: T15, ABL1(T315I)-phosphorylated (Homo sapiens, UniProt P00519, T315I)
T15 construct: purchased Eurofins DiscoverX Corporation

NEK2 = NEK2 (Homo sapiens, UniProt P51955)
EPHA5 = biological target: T16, EPHA5 (Homo sapiens, UniProt P54756)
T16 construct: purchased Eurofins DiscoverX (KINOMEscan service)

CLK3 = CLK3 (Homo sapiens, UniProt P49761)
STK35 = biological target: T17, STK35 (Homo sapiens, UniProt Q8TDR2)
T17 construct: purchased Eurofins DiscoverX (KINOMEscan service)

FYN = biological target: T18, FYN (Homo sapiens, UniProt P06241)
T18 construct: purchased Eurofins DiscoverX Corporation
T18 sequence (P06241 whole entry): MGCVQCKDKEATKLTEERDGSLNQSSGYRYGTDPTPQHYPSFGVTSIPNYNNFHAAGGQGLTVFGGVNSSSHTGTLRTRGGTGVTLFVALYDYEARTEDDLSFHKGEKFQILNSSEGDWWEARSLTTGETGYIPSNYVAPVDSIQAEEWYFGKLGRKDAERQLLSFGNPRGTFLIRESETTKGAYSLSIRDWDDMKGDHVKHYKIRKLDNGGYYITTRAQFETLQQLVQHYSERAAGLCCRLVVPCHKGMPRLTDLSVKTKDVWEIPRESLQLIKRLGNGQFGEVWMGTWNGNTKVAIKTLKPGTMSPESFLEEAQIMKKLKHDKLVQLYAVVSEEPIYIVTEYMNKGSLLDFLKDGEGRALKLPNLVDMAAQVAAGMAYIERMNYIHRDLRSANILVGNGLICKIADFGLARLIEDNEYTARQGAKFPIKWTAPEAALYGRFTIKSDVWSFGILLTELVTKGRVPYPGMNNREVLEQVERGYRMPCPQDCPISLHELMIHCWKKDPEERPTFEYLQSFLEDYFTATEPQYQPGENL

DAPK1 = DAPK1 (Homo sapiens, UniProt P53355)
EPHA1 = biological target: T19, EPHA1 (Homo sapiens, UniProt P21709)
T19 construct: purchased Eurofins DiscoverX (KINOMEscan service)

AKT1 = AKT1 (Homo sapiens, UniProt P31749)
ULK3 = biological target: T20, ULK3 (Homo sapiens, UniProt Q6PHR2)
T20 construct: purchased Eurofins DiscoverX

HIPK3 = biological target: T21, HIPK3 (Homo sapiens, UniProt Q9H422)
T21 construct: purchased Eurofins DiscoverX Corporation

BIKE = BIKE (Homo sapiens, UniProt Q9NSY1)
GRK4 = biological target: T22, GRK4 (Homo sapiens, UniProt P32298)
T22 construct: purchased Eurofins DiscoverX Corporation

MAP4K5 = MAP4K5 (Homo sapiens, UniProt Q9Y4K4)
MAK = MAK (Homo sapiens, UniProt P20794)
CDC2L2 = CDC2L2 (Homo sapiens, UniProt Q9UQ88)
ACVR2A = ACVR2A (Homo sapiens, UniProt P27037)
Sequence of ACVR2A (P27037 20-513): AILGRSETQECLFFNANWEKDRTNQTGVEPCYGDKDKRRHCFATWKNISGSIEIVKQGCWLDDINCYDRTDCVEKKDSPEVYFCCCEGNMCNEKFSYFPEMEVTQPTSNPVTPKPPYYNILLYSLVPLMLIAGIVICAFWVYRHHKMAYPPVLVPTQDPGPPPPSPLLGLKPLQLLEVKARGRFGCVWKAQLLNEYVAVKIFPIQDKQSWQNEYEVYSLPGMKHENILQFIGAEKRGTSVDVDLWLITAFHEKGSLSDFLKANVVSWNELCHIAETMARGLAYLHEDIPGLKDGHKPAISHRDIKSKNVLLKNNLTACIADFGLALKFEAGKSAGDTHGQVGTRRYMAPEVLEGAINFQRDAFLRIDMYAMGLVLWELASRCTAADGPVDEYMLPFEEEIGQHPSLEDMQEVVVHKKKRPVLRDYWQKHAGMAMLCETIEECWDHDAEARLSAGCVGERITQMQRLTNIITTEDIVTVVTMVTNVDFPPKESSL

T1 sequence (P11362 22-822): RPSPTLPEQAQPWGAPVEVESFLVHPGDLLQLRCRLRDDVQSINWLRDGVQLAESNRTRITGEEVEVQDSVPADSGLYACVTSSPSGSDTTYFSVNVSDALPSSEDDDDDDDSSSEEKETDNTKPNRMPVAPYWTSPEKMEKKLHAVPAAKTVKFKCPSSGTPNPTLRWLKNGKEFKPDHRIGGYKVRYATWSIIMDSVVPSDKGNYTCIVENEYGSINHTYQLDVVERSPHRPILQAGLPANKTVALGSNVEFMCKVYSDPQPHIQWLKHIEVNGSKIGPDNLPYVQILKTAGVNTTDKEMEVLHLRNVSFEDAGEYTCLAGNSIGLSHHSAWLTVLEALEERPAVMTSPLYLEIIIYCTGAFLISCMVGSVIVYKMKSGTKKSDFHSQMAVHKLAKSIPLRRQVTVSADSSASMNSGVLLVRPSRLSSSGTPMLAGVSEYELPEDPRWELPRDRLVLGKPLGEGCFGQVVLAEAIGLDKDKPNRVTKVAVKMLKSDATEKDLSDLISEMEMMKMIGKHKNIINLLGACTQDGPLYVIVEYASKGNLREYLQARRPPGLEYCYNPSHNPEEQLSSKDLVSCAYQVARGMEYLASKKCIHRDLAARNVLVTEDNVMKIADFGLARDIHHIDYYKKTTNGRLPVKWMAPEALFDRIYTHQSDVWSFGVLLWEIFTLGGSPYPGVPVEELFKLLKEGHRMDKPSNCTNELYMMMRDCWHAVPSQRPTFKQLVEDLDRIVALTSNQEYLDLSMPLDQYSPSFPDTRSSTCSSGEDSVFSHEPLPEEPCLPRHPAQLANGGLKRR

Question: For `C=CC(=O)Nc1ccc(OC)c(Nc2cc(-c3[nH]c(CC)nc3-c3cccc(NC(=O)c4cccc5c4NC(=O)c4ccccc4N5)c3)ccn2)c1` [Compound 4, N-(3-(5-(2-((5-Acrylamido-2-methoxyphenyl)amino)pyridin-4-yl)-2-ethyl-1H-imidazol-4-yl)phenyl)-11-oxo-10,11-dihydro-5H-dibenzo[b,e][1,4]diazepine-9-carboxamide], which remaining binding at 1 µM (FGFR1) is on record?
Answer: 86%

Question: What about the remaining binding at 1 µM (MAPKAPK2) of the same molecule?
Answer: 100%

Question: And the remaining binding at 1 µM (CHEK2)?
Answer: 87%

Question: And the remaining binding at 1 µM (ABL1-nonphosphorylated)?
Answer: 100%

Question: And the remaining binding at 1 µM (ACVR1)?
Answer: 96%

Question: And the remaining binding at 1 µM (PAK1)?
Answer: 100%

Question: What about the remaining binding at 1 µM (MAP3K3) of the same molecule?
Answer: 51%

Question: And the remaining binding at 1 µM (EPHA8)?
Answer: 98%

Question: And the remaining binding at 1 µM (FGR)?
Answer: 19%

Question: And the remaining binding at 1 µM (TIE1)?
Answer: 100%

Question: What about the remaining binding at 1 µM (CDKL3) of the same molecule?
Answer: 100%

Question: And the remaining binding at 1 µM (CHEK1)?
Answer: 100%

Question: What about the remaining binding at 1 µM (WEE2) of the same molecule?
Answer: 98%

Question: And the remaining binding at 1 µM (MKNK1)?
Answer: 100%

Question: What about the remaining binding at 1 µM (STK16) of the same molecule?
Answer: 100%

Question: What about the remaining binding at 1 µM (ERBB3) of the same molecule?
Answer: 84%

Question: What about the remaining binding at 1 µM (YSK4) of the same molecule?
Answer: 88%

Question: And the remaining binding at 1 µM (ABL1-phosphorylated)?
Answer: 80%

Question: What about the remaining binding at 1 µM (AXL) of the same molecule?
Answer: 98%

Question: What about the remaining binding at 1 µM (PIK3CA(E545A)) of the same molecule?
Answer: 100%

Question: What about the remaining binding at 1 µM (DLK) of the same molecule?
Answer: 100%

Question: And the remaining binding at 1 µM (PAK6)?
Answer: 93%

Question: What about the remaining binding at 1 µM (ULK2) of the same molecule?
Answer: 80%

Question: What about the remaining binding at 1 µM [1] of the same molecule?
Answer: 100%

Question: What about the remaining binding at 1 µM (NEK2) of the same molecule?
Answer: 98%

Question: What about the remaining binding at 1 µM (EPHA5) of the same molecule?
Answer: 100%

Question: What about the remaining binding at 1 µM (CLK3) of the same molecule?
Answer: 74%

Question: What about the remaining binding at 1 µM (STK35) of the same molecule?
Answer: 69%

Question: And the remaining binding at 1 µM (FYN)?
Answer: 64%

Question: And the remaining binding at 1 µM (DAPK1)?
Answer: 86%

Question: And the remaining binding at 1 µM (EPHA1)?
Answer: 100%

Question: What about the remaining binding at 1 µM (AKT1) of the same molecule?
Answer: 89%

Question: What about the remaining binding at 1 µM (ULK3) of the same molecule?
Answer: 100%

Question: What about the remaining binding at 1 µM (HIPK3) of the same molecule?
Answer: 100%

Question: What about the remaining binding at 1 µM (BIKE) of the same molecule?
Answer: 100%

Question: What about the remaining binding at 1 µM (GRK4) of the same molecule?
Answer: 100%

Question: What about the remaining binding at 1 µM (MAP4K5) of the same molecule?
Answer: 2.5%

Question: What about the remaining binding at 1 µM (MAK) of the same molecule?
Answer: 89%

Question: What about the remaining binding at 1 µM (CDC2L2) of the same molecule?
Answer: 91%

Question: And the remaining binding at 1 µM (ACVR2A)?
Answer: 77%
